As usually defined, the IC50 is the point on the concentration scale where inhibition reaches its midpoint.

Molecules are shown by their SMILES. Like-named read-outs stand apart in the source and are kept apart here.

Experimental findings from patent US11090304B2 (Amgen Inc., priority 2018, dated 2021) are described below.

Experiment [1] deals with Phosphorylation of ERK1/2 in MIA PaCa-2 cells. Kind of experiment: Phospho-ERK1/2 MSD assay in MIA PaCa-2 cells. Format: cell-based. The settings on record: read-out: p-ERK IC50 (2 h; MIA PaCa-2), 2 h compound treatment. The procedure, abridged:
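In the procedure, cells were plated a day ahead at 25,000 per well. Next, a dilution series of compound in growth medium was added for 2 or 4 h. EGF (10 ng/mL) stimulation for 10 min preceded washing and RIPA lysis. Lysate phospho-ERK1/2 was read by MSD, with IC50 derived by 4-parameter logistic analysis.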

The target in experiment [2] is GDP-bound KRAS protein (aa 1-169), containing both G12C and C118A amino acid substitutions (Homo sapiens, UniProt P01116, C118A/G12C). Kind of experiment: Coupled nucleotide exchange assay (SOS-mediated, AlphaScreen). Format: biochemical. The conditions noted are these: 5 min compound pre-incubation; for IC50: read-out: Coupled exchange IC50 (5 min). (In general: In Alpha technology, singlet oxygen from a donor bead excites a nearby acceptor bead.)
Chain of GDP-bound KRAS protein (aa 1-169), containing both G12C and C118A amino acid substitutions (P01116 1-169 isoform P01116-2 G12C/C118A): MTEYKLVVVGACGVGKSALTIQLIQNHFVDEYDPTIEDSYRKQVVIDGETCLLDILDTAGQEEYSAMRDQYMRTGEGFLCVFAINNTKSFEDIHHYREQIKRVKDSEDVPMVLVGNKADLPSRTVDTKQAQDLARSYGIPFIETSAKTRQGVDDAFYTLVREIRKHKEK

For `C=CC(=O)N1C[C@@H](C)N(c2nc(=O)n(-c3c(C)ccnc3C(C)C)c3nc(-c4c(O)cccc4F)c(Cl)cc23)[C@@H](C)C1` (atropisomer, axis not shown; (M)) [Example 73-13, (M)-6-chloro-4-(cis-2,6-dimethyl-4-(2-propenoyl)-1-piperazinyl)-7-(2-fluoro-6-hydroxyphenyl)-1-(4-methyl-2-(2-propanyl)-3-pyridinyl)pyrido[2,3-d]pyrimidin-2(1H)-one], the IC50 in experiment [1] (Homo sapiens, MIA PaCa-2, 2 h) turned out to be 17 nM. In addition, the “Coupled exchange IC50 (5 min)” value in experiment [2] is given as 0.023 | nda μM.
Turning to `C=CC(=O)N1C[C@H](C)N(c2nc(=O)n(-c3c(C)ccnc3C(C)C)c3nc(-c4c(N)cccc4F)c(Cl)cc23)[C@@H](C)C1` (atropisomer, axis not shown; (M)) [Example 73-15, (M)-7-(2-amino-6-fluorophenyl)-6-chloro-4-((2S,6S)-2,6-dimethyl-4-(2-propenoyl)-1-piperazinyl)-1-(4-methyl-2-(2-propanyl)-3-pyridinyl)pyrido[2,3-d]pyrimidin-2(1H)-one], in experiment [1] (Homo sapiens, MIA PaCa-2, 2 h), the IC50 was 4 nM. In addition, the “Coupled exchange IC50 (5 min)” value in experiment [2] is reported as 0.015 | nda μM.
With `C=CC(=O)N1C[C@H](C)N(c2nc(=O)n(-c3c(C)ccnc3C(C)C)c3nc(-c4c(O)cccc4F)c(Cl)cc23)[C@@H](C)C1` (atropisomer, axis not shown; (M)) [Example 73-16, (M)-6-chloro-4-((2S,6S)-2,6-dimethyl-4-(2-propenoyl)-1-piperazinyl)-7-(2-fluoro-6-hydroxyphenyl)-1-(4-methyl-2-(2-propanyl)-3-pyridinyl)pyrido[2,3-d]pyrimidin-2(1H)-one], in experiment [1] (Homo sapiens, MIA PaCa-2, 2 h), the IC50 amounted to 7 nM. Also, the “Coupled exchange IC50 (5 min)” value in experiment [2] is reported as 0.019 | nda μM.
`C=CC(=O)N1C[C@@H](C)N(c2nc(=O)n(-c3c(C)ccnc3C(C)C)c3nc(-c4c(O)cccc4F)c(F)cc23)[C@@H](C)C1` (atropisomer, axis not shown; (M)) [Example 75-1, (M)-4-(cis-2,6-Dimethyl-4-(2-propenoyl)-1-piperazinyl)-6-fluoro-7-(2-fluoro-6-hydroxyphenyl)-1-(4-methyl-2-(2-propanyl)-3-pyridinyl)pyrido[2,3-d]pyrimidin-2(1H)-one]: the IC50 worked out at 49 nM in experiment [1] and 48 nM in experiment [2].
On to `C=CC(=O)N1CCN(c2nc(=O)n(-c3c(C)ccnc3C(C)C)c3nc(-c4ccccc4F)c(Cl)cc23)C[C@H]1C` (atropisomer, axis not shown; (M)) [Example 78-1, (M)-6-Chloro-7-(2-fluorophenyl)-1-(4-methyl-2-(2-propanyl)-3-pyridinyl)-4-((3R)-3-methyl-4-(2-propenoyl)-1-piperazinyl)pyrido[2,3-d]pyrimidin-2(1H)-one], for which the IC50 in experiment [1] amounted to 49 nM; in experiment [2], 213 nM.
The like results for `C=CC(=O)N1CCN(c2nc(=O)n(-c3c(C)ccnc3C(C)C)c3nc(-c4c(C)ccc5[nH]ncc45)c(Cl)cc23)[C@@H](C)C1` (atropisomer, axis not shown; (M)) [Example 82-1, (M)-6-Chloro-7-(5-methyl-1H-indazol-4-yl)-1-(4-methyl-2-(2-propanyl)-3-pyridinyl)-4-((2S)-2-methyl-4-(2-propenoyl)-1-piperazinyl)pyrido[2,3-d]pyrimidin-2(1H)-one] were, in that order, 106 nM and 77 nM.
Turning to `C=CC(=O)N1CCN(c2nc(=O)n(-c3c(C)ccnc3C(C)C)c3nc(-c4c(O)cccc4F)c(Cl)cc23)C[C@H]1C` (atropisomer, axis not shown; (M)) [Example 129, (M)-6-Chloro-7-(2-fluoro-6-hydroxyphenyl)-1-(4-methyl-2-(2-propanyl)-3-pyridinyl)-4-((3R)-3-methyl-4-(2-propenoyl)-1-piperazinyl)pyrido[2,3-d]pyrimidin-2(1H)-one], the IC50 in experiment [1] (Homo sapiens, MIA PaCa-2, 2 h) is 95 nM. In addition, in experiment [2], the “Coupled exchange IC50 (5 min)” value is on record as 0.045 | nda μM.
Consider `Cc1ccnc(C(C)C)c1-n1c(=O)nc(N2CCN(C(=O)/C=C/CN(C)C)C[C@@H]2C)c2cc(F)c(-c3c(O)cccc3F)nc21` (atropisomer, axis not shown; (M)) [Example 145, (M)-4-((2S)-4-((2E)-4-(Dimethylamino)-2-butenoyl)-2-methyl-piperazinyl)-6-fluoro-7-(2-fluoro-6-hydroxyphenyl)-1-(4-methyl-2-(2-propanyl)-3-pyridinyl)pyrido[2,3-d]pyrimidin-2(1H)-one], for which the IC50 amounted to 3920 nM in experiment [1] and 952 nM in experiment [2].
`C=CC(=O)N1CCN(c2nc(=O)n(-c3c(C)cc[n+]([O-])c3C(C)C)c3nc(-c4ccccc4F)c(Cl)cc23)C(C)C1` (atropisomer, axis not shown; (M)) [Example 151, (M)-6-Chloro-7-(2-fluorophenyl)-1-(4-methyl-1-oxido-2-(2-propanyl)-3-pyridinyl)-4-((2S)-2-methyl-4-(2-propenoyl)-1-piperazinyl)pyrido[2,3-d]pyrimidin-2(1H)-one]: in experiment [1] (Homo sapiens, MIA PaCa-2, 2 h), the IC50 was 237 nM. For the same compound, the “Coupled exchange IC50 (5 min)” value in experiment [2] is 0.065 | nda μM.
For the compound `C=CC(=O)N1CCN(c2nc(=O)n(-c3c(CN(C)C)ccnc3C(C)C)c3nc(-c4ccccc4F)c(Cl)cc23)[C@@H](C)C1` (atropisomer, axis not shown; (M)) [Example 152, (M)-6-Chloro-1-(4-((dimethylamino)methyl)-2-(2-propanyl)-3-pyridinyl)-7-(2-fluorophenyl)-4-((2S)-2-methyl-4-(2-propenoyl)-1-piperazinyl)pyrido[2,3-d]pyrimidin-2(1H1)-one], the values for the IC50 in experiment [1] and in experiment [2] were 21 nM and 84 nM, respectively.
On to `C=CC(=O)N1CCN(c2nc(=O)n(-c3cccnc3C(C)C)c3nc(-c4ccccc4F)c(Cl)cc23)[C@@H](C)C1` (single isomer, unassigned) [Example 54-9-2], for which, in experiment [1], the IC50 was found to be 34 nM. Besides, the “Coupled exchange IC50 (5 min)” value in experiment [2] is given as 0.046 | nda μM.
Turning to `C=CC(=O)N1CCN(c2nc(=O)n(-c3ccccc3C3CCC3)c3nc(-c4c(O)cccc4F)c(Cl)cc23)[C@@H](C)C1` (single isomer, unassigned) [Example 54-10-2], the half-maximal inhibitory concentration (IC50) in experiment [1] (Homo sapiens, MIA PaCa-2, 2 h) was determined as 60 nM. For the same compound, the “Coupled exchange IC50 (5 min)” value in experiment [2] is 0.071 | nda μM.
Consider `C=CC(=O)N1CCN(c2nc(=O)n(-c3cccnc3C(C)C)c3nc(-c4c(O)cccc4F)c(Cl)cc23)[C@@H](C)C1` (single isomer, unassigned) [Example 54-11-1], for which, in experiment [1], the 50% inhibitory concentration (IC50) stood at 54 nM. The “Coupled exchange IC50 (5 min)” value in experiment [2] is given as 0.049 | nda μM.
`C=CC(=O)N1CCN(c2nc(=O)n(-c3cccnc3C(C)C)c3nc(-c4c(O)cccc4F)c(Cl)cc23)[C@@H](C)C1` (single isomer, unassigned) [Example 54-11-2]: the IC50 in experiment [1] was found to be 174 nM. Also, the “Coupled exchange IC50 (5 min)” value in experiment [2] is given as 0.343 | nda μM.
Turning to `C=CC(=O)N1CCN(c2nc(=O)n(-c3ccccc3C3CCC3)c3nc(-c4ccccc4F)c(Cl)cc23)[C@@H](C)C1` (single isomer, unassigned) [Example 54-12-1], the IC50 in experiment [1] was 78 nM. The “Coupled exchange IC50 (5 min)” value in experiment [2] is listed as 0.13 | nda μM.
On the same counts, the results for `C=CC(=O)N1CCN(c2nc(=O)n(-c3ccccc3C3CCC3)c3nc(-c4ccccc4F)c(Cl)cc23)[C@@H](C)C1` (single isomer, unassigned) [Example 54-12-2] are 689 nM and 0.949 | nda μM.
The like results for `C=CC(=O)N1CCN(c2nc(=O)n(-c3c(C(C)C)ccnc3C)c3nc(-c4ccccc4F)c(Cl)cc23)[C@@H](C)C1` (single isomer, unassigned) [Example 54-18-1] were, in that order, 36 nM and 0.044 | nda μM.
As to `C=CC(=O)N1CCN(c2nc(=O)n(-c3c(C(C)C)ccnc3C)c3nc(-c4ccccc4F)c(Cl)cc23)[C@@H](C)C1` (single isomer, unassigned) [Example 54-18-2], in experiment [1], the IC50 came out at 643 nM. In experiment [2], the “Coupled exchange IC50 (5 min)” value was 0.729 | nda μM.
As for `C=CC(=O)N1CCN(c2nc(=O)n(-c3ccccc3C(C)C)c3nc(-c4cc(OC(F)F)ccc4F)c(Cl)cc23)[C@@H](C)C1` (single isomer, unassigned) [Example 54-51-1], the IC50 in experiment [1] (Homo sapiens, MIA PaCa-2, 2 h) is 263 nM. Besides, the “Coupled exchange IC50 (5 min)” value in experiment [2] is 0.108 | nda μM.
For `C=CC(=O)N1CCN(c2nc(=O)n(-c3c(OC)cccc3C(C)C)c3nc(-c4c(O)cccc4F)c(Cl)cc23)[C@@H](C)C1` (single isomer, unassigned) [Example 54-73-1], the IC50 in experiment [1] was determined as 38 nM. In experiment [2], the “Coupled exchange IC50 (5 min)” value is on record as 0.025 | nda μM.
The like results for `C=CC(=O)N1CCN(c2nc(=O)n(-c3c(OC)cccc3C(C)C)c3nc(-c4c(O)cccc4F)c(Cl)cc23)[C@@H](C)C1` (single isomer, unassigned) [Example 54-73-2] were, in that order, 927 nM and 0.368 | nda μM.
As to `C=CC(=O)N1CCN(c2nc(=O)n(-c3ccccc3C(C)C)c3nc(C4=CCCCC4)c(Cl)cc23)[C@@H](C)C1` (single isomer, unassigned) [Example 54-75-1], the IC50 in experiment [1] (Homo sapiens, MIA PaCa-2, 2 h) stood at 853 nM. The “Coupled exchange IC50 (5 min)” value in experiment [2] is recorded as 0.419 | nda μM.
On the same counts, the results for `C=CC(=O)N1CCN(c2nc(=O)n(-c3ccccc3C(C)C)c3nc(-c4ccc(F)cc4O)c(Cl)cc23)[C@@H](C)C1` (single isomer, unassigned) [Example 54-77-2] are 176 nM and 0.136 | nda μM.
The like results for `C=CC(=O)N1CCN(c2nc(=O)n(-c3ccccc3C(C)C)c3nc(-c4cc(F)ccc4O)c(Cl)cc23)[C@@H](C)C1` (single isomer, unassigned) [Example 54-78-2] were, in that order, 311 nM and 0.212 | nda μM.
Consider `C=CC(=O)N1CCN(c2nc(=O)n(-c3ccccc3C(C)C)c3nc(-c4ccc(F)cc4F)c(Cl)cc23)[C@@H](C)C1` (single isomer, unassigned) [Example 54-85-1], for which the IC50 in experiment [1] was determined as 1510 nM. In experiment [2], the “Coupled exchange IC50 (5 min)” value is recorded as 3.4 | nda μM.
